Measurements taken from patent US20210045986A1, “COMPOSITION FOR PREVENTION OR TREATMENT OF SKIN INFECTION” (CARESIDE CO., LTD., priority 2018, published 2021).

Assay: Precipitate generation prevention experiment of liquid formulation under accelerated storage
Format: physicochemical
Set-up: key: O: Generated; X: Non-Generated
Details: for Result: whether or not a precipitate is generated: chlorhexidine gluconate 0.1, terbinafine hydrochloride 0.1, ethanol 59 wt %; for Whether or not a precipitate is generated: 1.0% malic acid, 0.3% sodium borate
Source text: As described above, most liquid medicines include excipients including chloride ions, and the composition of the present invention in combination with terbinafine hydrochloride may also cause precipitation. However, it may further include malic acid and sodium borate to prevent the generation of precipitates of terbinafine hydrochloride. Hereinafter, a description will be given of the precipitate generation experiments of terbinafine hydrochloride.
First, a liquid formulation containing terbinafine hydrochloride, chlorhexidine gluconate and ciclopirox olamine is prepared as shown in the following [Table 3]. Malic acid or polycarboxylic acid other than malic acid is added to the prepared liquid formulation, and the presence or absence of a precipitate is observed.
First, malic acid, citric acid, oxalic acid and tartaric acid are prepared as a polycarboxylic acid such as malic acid. To the liquid formulation prepared in the above [Table 3], polycarboxylic acid was added in 0.1, 0.3, 0.5, 0.7, 1.0, 2.0, 3.0, 4.0, 5.0 (w/v %), respectively, and then chlorhexidine gluconate is adjusted to a stable pH of 5.0 using a pH adjusting agent. And, the liquid formulations were stored under accelerated conditions of 40±2° C. and relative humidity of 75±5% to observe the presence or absence of precipitates. […]
Next, after adding 1.0% of malic acid and 0.3% of sodium borate, an experiment is performed to determine whether precipitates are generated by adjusting the content of chlorhexidine gluconate, terbinafine hydrochloride, and ciclopirox olamine. The experimental results are shown in the following [Table 6] and [Table 7], and experiments were performed on whether or not precipitates of the liquid formulations prepared without adding malic acid and sodium borate are generated were shown in [Table 8].

[1] = concentration of the ingredient 0.1 %
[2] = concentration of the ingredient 0.3 %
[3] = concentration of the ingredient 0.5 %
[4] = concentration of the ingredient 1.0 %
[5] = concentration of the ingredient 2.0 %
[6] = concentration of the ingredient 3.0 %
[7] = concentration of the ingredient 4.0 %
[8] = concentration of the ingredient 5.0 %
[9] = concentration of the ingredient 6.0 %

| Whether or not a precipitate is generated [1] | Whether or not a precipitate is generated [2] | Whether or not a precipitate is generated [3] | Whether or not a precipitate is generated [4] | Whether or not a precipitate is generated [5] | Whether or not a precipitate is generated [6] | Whether or not a precipitate is generated [7] | Whether or not a precipitate is generated [8] | Whether or not a precipitate is generated [9] | SMILES | other results |
| --- | --- | --- | --- | --- | --- | --- | --- | --- | --- | --- |
|  |  |  |  |  |  |  |  |  | Cc1cc(C2CCCCC2)n(O)c(=O)c1 [Ciclopirox Olamine, 2(1H)-Pyridinone, 6-cyclohexyl-1-hydroxy-4-methyl-compound with 2-aminoethanol (1:1)] | Result: whether or not a precipitate is generated (ciclopirox olamine 0.1 wt %, malic acid and sodium borate, pH 5.3~5.7): X; Result: whether or not a precipitate is generated (ciclopirox olamine 0.1 wt %, without malic acid and sodium borate, pH adjustment x): O; Result: whether or not a precipitate is generated (ciclopirox olamine 0.2 wt %, without malic acid and sodium borate, pH adjustment x): O; Result: whether or not a precipitate is generated (ciclopirox olamine 0.3 wt %, malic acid and sodium borate, pH 5.3~5.7): X; Result: whether or not a precipitate is generated (ciclopirox olamine 0.3 wt %, without malic acid and sodium borate, pH adjustment x): O; Result: whether or not a precipitate is generated (ciclopirox olamine 0.4 wt %, without malic acid and sodium borate, pH adjustment x): O; Result: whether or not a precipitate is generated (ciclopirox olamine 0.5 wt %, malic acid and sodium borate, pH 5.3~5.7): X; Result: whether or not a precipitate is generated (ciclopirox olamine 0.5 wt %, without malic acid and sodium borate, pH adjustment x): O; Result: whether or not a precipitate is generated (ciclopirox olamine 0.6 wt %, without malic acid and sodium borate, pH adjustment x): O; Result: whether or not a precipitate is generated (ciclopirox olamine 0.7 wt %, without malic acid and sodium borate, pH adjustment x): O; Result: whether or not a precipitate is generated (ciclopirox olamine 0.8 wt %, without malic acid and sodium borate, pH adjustment x): O; Result: whether or not a precipitate is generated (ciclopirox olamine 0.9 wt %, without malic acid and sodium borate, pH adjustment x): O; Result: whether or not a precipitate is generated (ciclopirox olamine 1.0 wt %, malic acid and sodium borate, pH 5.3~5.7): X; Result: whether or not a precipitate is generated (ciclopirox olamine 2.0 wt %, malic acid and sodium borate, pH 5.3~5.7): X; Result: whether or not a precipitate is generated (ciclopirox olamine 3.0 wt %, malic acid and sodium borate, pH 5.3~5.7): X; Result: whether or not a precipitate is generated (ciclopirox olamine 4.0 wt %, malic acid and sodium borate, pH 5.3~5.7): X; Result: whether or not a precipitate is generated (ciclopirox olamine 5.0 wt %, malic acid and sodium borate, pH 5.3~5.7): X; Result: whether or not a precipitate is generated (ciclopirox olamine 6.0 wt %, malic acid and sodium borate, pH 5.3~5.7): X |
| X | X | X | X | X | X | X | O | O | N=C(NCCCCCCNC(=N)NC(=N)Nc1ccc(Cl)cc1)NC(=N)Nc1ccc(Cl)cc1 [Chlorhexidine Gluconate, chlorhexidine gluconate] |  |
| X | X | X | X | X | O | O | O | O | CN(C/C=C/C#CC(C)(C)C)Cc1cccc2ccccc12.Cl [Terbinafine hydrochloride, [(2E)-6,6-dimethylhept-2-en-4-yn-1-yl] (methyl) (naphthalen-1-ylmethyl)aminehydrochloride] |  |
